Patent US20250065017A1, “Fractionating Extracellular Matrix to Modulate Bioactivity and the Host Response” (University of Pittsburgh - Of the Commonwealth System of …, priority 2014, published 2025)

Experiments:
[1] = test system: THP1 macrophage-like cells; experiment: Secreted factor analysis (ELISA); type: cell-based, human
Method: THP-1 human monocytes were obtained from the American Tissue Culture Collection (ATCC, Manassas, VA) and maintained in RPMI, 10% FBS, 1% penicillin/streptomycin, 2 mM L-glutamine, and 1 mM sodium pyruvate in a humidified atmosphere at 37° C. with 5% CO2. For experiments, 500,000 THP-1 cells/mL were plated with 320 nM phorbol 12-myristate 13-acetate (PMA) for 24 hours to induce differentiation into macrophages. Adherent macrophages were washed in PBS and placed in fresh media, followed by a 24 hour incubation to acquiesce. […] Once cells were prepared as described above, aspirin (200 µM, where appropriate) was added for 1 hour. Subsequently, UBM hydrogel (0.5 mg/mL) or pepsin control buffer (0.05 mg/mL) was added and cells were allowed to incubate for 24-72 hours. After incubation, cells were pelleted by centrifugation (700×g, 5 minutes, 4° C.), and the culture supernatants were carefully removed. Supernatants were stored at -80° C. until the time of assay. Secreted factor concentrations in the culture supernatants were determined using commercially available ELISA kits (PGE2, PGF2α, ENZO Life Sciences) and IL-1RA (R&D Systems)) according to the manufacturer's instructions.

brain derived microglia = experiment: PGE2 secretion in primary microglia; type: cell-based, rat; conditions: UBM hydrogel 0.5 mg/mL 48 hours; inhibitor pre-treatment 1 hour
Method: Primary microglia from rats were obtained from postnatal day 3 rat pup brains as previously described ([…], Xiao X, Hart RP, Schwartz M. Protective autoimmunity: interferon-gamma enables microglia to remove glutamate without evoking inflammatory mediators. J Neurochem 2005;92(5):997-1009). Whole brains from postnatal day 3 Sprague Dawley rat pups (Charles River) were harvested and minced after removal of the brain stem, olfactory bulbs, and meninges. Tissue was digested for 15 min in 0.25% trypsin/EDTA at 37° C. […] The suspension was centrifuged, diluted in culture media (DMEM/F12, 10% FBS, 2 mM L-glutamine, 1% penicillin/streptomycin), and grown to confluence at 37° C./5% CO2. Culture media was replaced every 2-3 days. At day 11-12 in vitro, enriched microglia were obtained by mechanical agitation (orbital shaker, 150 rpm, 37 C) for 2 hours. The media was collected after the shake-off step and centrifuged (1400 rpm for 5 minutes). The cell pellet was resuspended in culture media (RPMI 1640, 10% FBS, 1 mM L-glutamine, 1 mM sodium pyruvate, 50 μM beta-mercaptoethanol, 1% penicillin and streptomycin) and cells were plated at a density of 500,000/mL. […] Secreted factor concentrations in the culture supernatants were determined using commercially available ELISA kits (PGE2, PGF2α, ENZO Life Sciences) and IL-1RA (R&D Systems)) according to the manufacturer's instructions.

[2] = test system: THP1 macrophage-like cells; experiment: COX2 expression by western blot; type: cell-based, human; conditions: Aspirin 200 μM with UBM hydrogel 0.5 mg/mL; 4, 8, 24 hours
Method: Cells were then treated with UBM hydrogel for 4, 8, or 24 hours. At the specified time points, cells were washed extensively with 1× PBS and lysis buffer (50 mM Tris, 20 mM NaCl, 1% Triton X-100) was added. Cells were mechanically removed from the culture dish, transferred to centrifuge tubes and incubated on ice for 10 minutes. Lysates were spun down at 14000 rpm for 20 minutes at 4° C. to remove any debris. The clarified lysate was stored at −80° C. Lysates were diluted 1:1 in 2× Laemmli Sample Buffer (Bio-Rad, Hercules, CA) and boiled at 95° C. for 5 minutes. Samples were then resolved on 9% SDS-PAGE gels (National Diagnostics) and transferred to polyvinyldifluoride (PVDF, Millipore) membranes. Membranes were blocked with 1:1 Odyssey Blocking Buffer:1×PBS (Licor) overnight at 4° C. […]

[3] = Aspirin 200 μM with UBM hydrogel 0.5 mg/mL, 48 hours

CC(=O)Oc1ccccc1C(=O)O [Aspirin]
IL-1RA secretion [1, 3]: did not cause any significant drop in IL-1RA secretion
production of PGE2 and PGF2α [1, 3]: reduced production of both PGE2 and PGF2α down to basal levels
PGE2 production ([1]; THP1, UBM hydrogel 0.5 mg/mL 48 hours, inhibitor pre-treatment 1 hour): reduced PGE2 production to baseline levels
PGE2 production (brain derived microglia): reduced PGE2 production to baseline levels
change in COX2 expression [2]: did not cause any changes in COX2 expression
